# According to ChEMBL document CHEMBL1145219, “A new strategy to combat Alzheimer's disease. Combining radical-scavenging potential with metal-protein-attenuating ability in one molecule” (Bioorg Med Chem Lett, 2005):
# Test system: Cell line
# Assay: Radical-scavenging potency with metal-protein-attenuating ability in human was determined
# Format: functional, cell-based
Compound,"EC50 (Homo sapiens, Cell line) [nM]",EC50 (cell line) [nM]
"N,N0-butylene bis-(2-acetylpyridine iminato) copper(II)",,560
"N,N0-ethylene bis-(2-acetylpyridine iminato) copper(II)",,11000

# The remaining lines, values ahead:
"EC50 (Homo sapiens, Cell line) [nM]",EC50 (cell line) [nM],Compound
900,,c1ccc2[nH]c(CN3CCNCCNCC3)nc2c1
760,,c1ccc2[nH]c(CN3CCNCCN(Cc4nc5ccccc5[nH]4)CC3)nc2c1
,2330,"N,N0-propylene bis-(2-acetylpyridine iminato) copper(II)"
